One assay concerns the target AChE (Electrophorus electricus, UniProt O42275). Briefly: Ellman's assay, AChE (type VI-S) inhibition. The format is biochemical.
The target in a further assay is BChE (Equus caballus, UniProt P81908). Briefly: Ellman's assay, BChE inhibition. Format: biochemical.

The text below walks through data of article PMC11808583 (Current Neuropharmacology, 2024).

Structures are written as SMILES.

BChE, sequence (P81908 whole entry): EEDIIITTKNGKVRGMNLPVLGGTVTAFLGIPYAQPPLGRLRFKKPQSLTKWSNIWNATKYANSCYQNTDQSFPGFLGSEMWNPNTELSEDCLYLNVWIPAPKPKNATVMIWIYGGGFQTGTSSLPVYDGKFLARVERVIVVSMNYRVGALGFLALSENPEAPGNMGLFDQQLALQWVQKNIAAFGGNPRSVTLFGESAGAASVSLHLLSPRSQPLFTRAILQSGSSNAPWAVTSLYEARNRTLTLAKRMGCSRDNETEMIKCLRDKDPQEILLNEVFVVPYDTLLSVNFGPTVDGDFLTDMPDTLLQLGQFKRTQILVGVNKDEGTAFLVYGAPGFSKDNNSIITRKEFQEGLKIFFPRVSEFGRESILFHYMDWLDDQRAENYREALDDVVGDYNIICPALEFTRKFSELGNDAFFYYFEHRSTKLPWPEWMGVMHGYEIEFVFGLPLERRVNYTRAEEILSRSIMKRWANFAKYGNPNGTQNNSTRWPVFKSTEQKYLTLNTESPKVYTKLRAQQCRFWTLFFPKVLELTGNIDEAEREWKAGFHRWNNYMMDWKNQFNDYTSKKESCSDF
AChE, sequence (O42275 24-633): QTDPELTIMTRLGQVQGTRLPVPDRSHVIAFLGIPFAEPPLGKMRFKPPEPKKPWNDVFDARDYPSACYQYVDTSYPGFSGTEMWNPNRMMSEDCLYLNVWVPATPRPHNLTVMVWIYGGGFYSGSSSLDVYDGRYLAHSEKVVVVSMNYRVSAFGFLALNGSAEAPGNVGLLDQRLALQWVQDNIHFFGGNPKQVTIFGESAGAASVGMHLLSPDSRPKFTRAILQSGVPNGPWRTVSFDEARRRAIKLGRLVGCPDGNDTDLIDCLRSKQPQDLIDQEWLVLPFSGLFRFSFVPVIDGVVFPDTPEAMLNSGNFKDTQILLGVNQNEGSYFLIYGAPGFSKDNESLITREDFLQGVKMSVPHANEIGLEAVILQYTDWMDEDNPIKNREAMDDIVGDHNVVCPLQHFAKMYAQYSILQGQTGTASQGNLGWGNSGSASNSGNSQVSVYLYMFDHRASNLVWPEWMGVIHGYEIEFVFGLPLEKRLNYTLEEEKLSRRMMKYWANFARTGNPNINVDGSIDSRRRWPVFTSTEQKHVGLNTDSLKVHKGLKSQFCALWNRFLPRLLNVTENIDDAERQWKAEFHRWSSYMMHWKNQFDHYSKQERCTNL

As to `C/C=C\c1ccc(O)c(OC)c1` [isoeugenol], the results for the IC50 at AChE and against BChE were 2620 µM and 1690 µM, respectively.
